Test results as given in patent publication US20220267329A1, “Dihydro-Spiro[Indoline-3:1'-Isoquinolin]-2-Ones and Their Analogues and Derivatives and Methods of Treating Cancer and Other Diseases” (The University of Buea, priority 2019, published 2022).

Tests used:
[1] = tested on: ovarian cancer cell lines; experiment: NCI-60 screen, ovarian cell lines; type: cell-based, human; conditions: NCI-60 preliminary screening; for inhibition at 10 µM: Homo sapiens, read-out: Percent (%) Inhibition of Cancer Cell Line, Ovarian
Procedure: (§1) Screening for Anticancer Activity—The NCI-60 panel: Representative compounds of the invention were subjected to anticancer testing in the National Cancer Institute (NCI) 60 screen. In this screen compounds are tested on a panel of sixty human cancer cell lines chosen from the following cancers: leukemia, nonsmall cell lung cancer (NSCLC), colon, melanoma, central nervous system (CNS), ovarian, renal, prostate and breast. The assay method is found on the NCI website (dtp.cancer.gov/discovery_development/nci-60/methodology.htm). In the NCI-60 assay, test compounds undergo preliminary screening at 10 μM concentration. The data is reported as percent growth relative to “no drug” control; therefore values between 0 and 100% denote growth inhibition.

[2] = tested on: EMT6 breast cancer cell line; experiment: Antiproliferative screening on EMT6 cancer cells; type: cell-based; conditions: for activity at 100 µM: Mus musculus, EMT6, no ligand = 100, read-out: EMT6 cell proliferation (%)
Procedure: Representative compounds were screened tested for antiproliferative activity on the EMT6 breast cancer cell line. Screening was carried out according to published procedures (Zeng et al., 2014). In this screen, compounds were tested at 100 μM concentration.

[3] = tested on: nonsmall cell lung cancer (NSCLC) cell lines; experiment: NCI-60 screen, NSCLC cell lines; type: cell-based, human; conditions: NCI-60 preliminary screening; for inhibition at 10 µM: Homo sapiens, read-out: Percent (%) Inhibition of Cancer Cell Line, NSCLC
Procedure: as §1

[4] = tested on: renal cancer cell lines; experiment: NCI-60 screen, renal cell lines; type: cell-based, human; conditions: NCI-60 preliminary screening; for inhibition at 10 µM: Homo sapiens, read-out: Percent (%) Inhibition of Cancer Cell Line, Renal Cell
Procedure: as §1

[5] = molecular target: sphingosine-1-phosphate receptor 1 (S1PR1) (Homo sapiens, UniProt P21453); experiment: Radioligand binding to sphingosine-1-phosphate receptor 1; conditions: test compound 100 nM, 0.2 nM radioligand; read-out: % INHIBITION of binding to the SIP1 Receptor
Procedure: The binding of a representative group of compounds of this invention to sphingosine-1-phosphate receptor 1 (S1PR1) was determined by a published procedure (Rosenberg et al., 2016). In this assay, the test compound at 100 nM concentration was incubated with 0.2 nM radioligand. Active compounds or “hits” are defined as compounds that inhibit radioligand binding by 50% or more. […] This finding is significant because it establishes the 3′,4′-dihydro-2′H-[…]-2-one hybrid scaffold as an entirely new class of ligands for the sphingosine-1-phosphate receptors.

[6] = tested on: breast cancer cell lines; experiment: NCI-60 screen, breast cell lines; type: cell-based, human; conditions: NCI-60 preliminary screening; for inhibition at 10 µM: Homo sapiens, read-out: Percent (%) Inhibition of Cancer Cell Line, Breast
Procedure: as §1

[7] = tested on: prostate cancer cell lines; experiment: NCI-60 screen, prostate cell lines; type: cell-based, human; conditions: NCI-60 preliminary screening; for inhibition at 10 µM: Homo sapiens, Prostate cell, read-out: Percent (%) Inhibition of Cancer Cell Line, Prostate
Procedure: as §1

[8] = tested on: central nervous system (CNS) cancer cell lines; experiment: NCI-60 screen, CNS cell lines; type: cell-based; conditions: Homo sapiens, NCI-60 preliminary screening, read-out: Percent (%) Inhibition of Cancer Cell Line, CNS
Procedure: as §1

[9] = tested on: panel of sixty human cancer cell lines; experiment: NCI-60 screen, whole panel; type: cell-based; conditions: 10 μM
Procedure: as §1

[10] = tested on: leukemia cell lines; experiment: NCI-60 screen, leukemia cell lines; type: cell-based; conditions: Homo sapiens, NCI-60 preliminary screening, read-out: Percent (%) Inhibition of Cancer Cell Line, Leukemia
Procedure: as §1

[11] = tested on: melanoma cell lines; experiment: NCI-60 screen, melanoma cell lines; type: cell-based; conditions: Homo sapiens, NCI-60 preliminary screening, read-out: Percent (%) Inhibition of Cancer Cell Line, Melanoma
Procedure: as §1

sphingosine-1-phosphate receptor 1 (S1PR1), sequence (P21453 whole entry, species assumed): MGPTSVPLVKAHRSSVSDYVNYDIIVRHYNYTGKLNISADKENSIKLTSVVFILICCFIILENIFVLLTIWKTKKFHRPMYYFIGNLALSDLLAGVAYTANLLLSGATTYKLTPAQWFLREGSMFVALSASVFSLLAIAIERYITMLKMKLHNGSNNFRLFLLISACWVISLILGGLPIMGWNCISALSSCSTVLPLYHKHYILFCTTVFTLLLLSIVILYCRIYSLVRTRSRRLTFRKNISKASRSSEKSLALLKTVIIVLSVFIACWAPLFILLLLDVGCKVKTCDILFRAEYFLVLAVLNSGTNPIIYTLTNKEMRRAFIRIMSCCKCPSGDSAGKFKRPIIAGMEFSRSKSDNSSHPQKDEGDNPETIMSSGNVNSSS

Structure (SMILES): O=C1Nc2ccccc2C12NCCc1cccc(O)c12 (stereo not shown) [Compound 1a, 8′-Hydroxy-3′,4′-dihydro-2′H-spiro[indoline-3,1′-isoquinolin]-2-one]
- inhibition at 10 µM [1]: 10%
- activity at 100 µM [2]: 104%
- inhibition at 10 µM [3]: 15%
- inhibition at 10 µM [4]: 14%

Structure (SMILES): O=C1N(Cc2ccc(F)cc2)c2ccccc2C12NCCc1cccc(O)c12 (stereo not shown) [Compound 1d, 1-(4-Fluorobenzyl)-8′-hydroxy-3′,4′-dihydro-2H-spiro[indoline-3,1′-isoquinolin]-2-one]
- inhibition at 0.1 µM [5]: ≥ 50%
- activity at 100 µM [2]: 120%
- melting point: 119 to 121 °C

Structure (SMILES): O=C1N(Cc2ccc(Cl)cc2)c2ccccc2C12NCCc1cccc(O)c12 (stereo not shown) [Compound 1e, 1-(4-Chlorobenzyl)-8′-hydroxy-3′,4°-dihydro-2′H-spiro[indoline-3,1′-isoquinolin]-2-one]
- Percent (%) Inhibition of Cancer Cell Line, Breast ([6]; 10 μM): 12%
- Percent (%) Inhibition of Cancer Cell Line, Ovarian ([1]; 10 μM): 14%
- EMT6 cell proliferation (%) ([2]; 100 μM, no ligand = 100): 77.91%
- Percent (%) Inhibition of Cancer Cell Line, Prostate ([7]; 10 μM): 14%
- Percent (%) Inhibition of Cancer Cell Line, NSCLC ([3]; 10 μM): 30%
- Percent (%) Inhibition of Cancer Cell Line, Renal Cell ([4]; 10 μM): 35%

Structure (SMILES): O=C1N(Cc2ccc(Cl)c(Cl)c2)c2ccccc2C12NCCc1cccc(O)c12 (stereo not shown) [Compound 1g, 1-(3,4-Dichlorobenzyl)-8′-hydroxy-3′,4′-dihydro-2′H-spiro[indoline-3,1′-isoquinolin]-2-one]
- activity at 100 µM [2]: 91.1%
- melting point: 109 to 113 °C

Structure (SMILES): COc1ccc2c(c1)CCNC21C(=O)Nc2ccccc21 (stereo not shown) [Compound 4a, 6′-Methoxy-3′,4′-dihydro-2′H-spiro[indoline-3,1′-isoquinolin]-2-one]
- inhibition at 10 µM [8]: 20%
- inhibition at 0.1 µM [5]: 36.2%
- inhibition at 10 µM [4]: 20%

Structure (SMILES): COc1ccc2c(c1)CCNC21C(=O)N(Cc2ccc(C)cc2)c2ccccc21 (stereo not shown) [Compound 4e, 6′-Methoxy-1-(4-methylbenzyl)-3′,4′-dihydro-2′H-spiro[indoline-3,1′-isoquinolin]-2-one]
- inhibition at 10 µM [6]: 25 to 30%
- inhibition at 0.1 µM [5]: 38.1%
- inhibition at 10 µM [3]: 25 to 28%
- antiproliferative activity in the NCI-60 panel [9]: most potent analogues
- inhibition at 10 µM [4]: 30 to 46%

Structure (SMILES): COc1cc2c(cc1OC)C1(NCC2)C(=O)Nc2ccc(Cl)cc21 (stereo not shown) [Compound 5b, 5-Chloro-6′,7′-dimethoxy-3′,4′-dihydro-2′H-spiro[indoline-3,1′-isoquinolin]-2-one]
- inhibition at 10 µM [8]: 32%
- inhibition at 0.1 µM [5]: ≥ 50%
- inhibition at 10 µM [4]: 22%

Structure (SMILES): COc1cc2c(cc1OC)C1(NCC2)C(=O)Nc2c(Br)cc(Br)cc21 (stereo not shown) [Compound 5c, 5,7-dibromo-6′,7′-dimethoxy-3′,4′-dihydro-2′H-spiro[indoline-3,1′-isoquinolin]-2-one]
- inhibition at 10 µM [8]: 25%
- inhibition at 10 µM [10]: 24%
- inhibition at 0.1 µM [5]: 37.6%
- inhibition at 10 µM [4]: 27 to 35%

Structure (SMILES): COc1cc2c(cc1OC)C1(NCC2)C(=O)N(Cc2ccc(C)cc2)c2ccccc21 (stereo not shown) [Compound 5e, 6′,7′-Dimethoxy-1-(4-methylbenzyl)-3′,4′-dihydro-2′H-spiro[indoline-3,1′-isoquinolin]-2-one]
- inhibition at 10 µM [6]: 22 to 24%
- inhibition at 10 µM [10]: 24 to 48%
- inhibition at 0.1 µM [5]: 32.4%
- inhibition at 10 µM [7]: 42%
- antiproliferative activity in the NCI-60 panel [9]: most potent analogues
- inhibition at 10 µM [4]: 25%

Structure (SMILES): COc1cc2c(cc1OC)C1(NCC2)C(=O)N(Cc2ccc(Br)cc2)c2ccc(Cl)cc21 (stereo not shown) [Compound 5f, 1-(4-Bromobenzyl)-5-chloro-6′,7′-dimethoxy-3′,4′-dihydro-2′H-spiro[indoline-3,1′-isoquinolin]-2-one]
- inhibition at 10 µM [6]: 27 to 36%
- inhibition at 10 µM [10]: 38 to 55%
- inhibition at 10 µM [1]: 39%
- inhibition at 10 µM [7]: 52%
- antiproliferative activity in the NCI-60 panel [9]: most potent analogues
- inhibition at 10 µM [11]: 44%

Structure (SMILES): COc1cc2c(c(OC)c1OC)C1(NCC2)C(=O)Nc2ccc(Cl)cc21 (stereo not shown) [Compound 6b, 5-Chloro-6′,7′,8′-trimethoxy-3′,4′-dihydro-2′H-spiro[indoline-3,1′-isoquinolin]-2-one]
- inhibition at 10 µM [1]: 20%
- inhibition at 0.1 µM [5]: 41.1%
- inhibition at 10 µM [3]: 20%
- inhibition at 10 µM [4]: 28 to 31%
